Reference: US10111936B2, “Metal-glycoprotein complexes and photodynamic therapy of immune privileged sites with same” (Theralase Technologies, Inc., priority 2015, dated 2018)

Assays:
[1] = Absorbance / optical density with transferrin or OPTIFERRIN; assay type: physicochemical; conditions: novel absorption in the red (600 nm) and near infrared (800 nm)
Procedure: Transferrin (0.2 mg/mL) was incubated with different photosensitizers (10 uM) and the absorbance spectra were obtained. […] Note that a large relative increase in absorbance may be accompanied by a small absolute difference and vice versa.
The optical density of TLD1433 was measured before and after the addition of either OPTIFERRIN (available from InVitria, a division of Ventria Bioscience) or human apo-transferrin (Sigma). […] This finding highlights the potential of using OPTIFERRIN to increase the efficacy of Theralase's TLD1433 photosensitizer. The increase in optical density will translate to a higher production of reactive oxygen species during PDT treatment. The absorption in red and near infrared light will allow for novel treatment applications for different tumors.

[2] = cited from earlier work
[3] = tested on: RG2 cells (rat glioblastoma tumor model); assay: In vivo PDT in rat glioblastoma; conditions: ALA mediated PDT in RG2 tumor model; comparison
Procedure: A four-month old rat was injected in the cerebral cortex with 5000 RG2 cells (rat glioblastoma tumor model). Eleven days later, the rat was injected with TLD1433 (5 mg/kg) with human apo-transferrin.
PDT was administered 24 hours later. Light source and fluence: 808 nm wavelength, 300 J/cm^2 delivered at 100 mW. The number of photons absorbed was 2.8×10^17 photons/cm^3.
A five-month old rat was injected in the cerebral cortex with 5000 RG2 cells. Eleven days later, the rat was injected with TLD1433 (5 mg/kg) with human apo-transferrin. PDT was administered 24 hours later. Light source and fluence: 808 nm wavelength, 600 J/cm^2 delivered at 200 mW. The number of photons absorbed was 4.41×10^18 photons/cm^3.

## TLD1433-OPTIFERRIN complex: complex of TLD1433 with OPTIFERRIN, a recombinant human transferrin
[1]
  optical density after addition of OPTIFERRIN: substantial increase in optical density

## Cn1nnc2c(C(N)=O)ncn2c1=O [temozolomide]
[2]
  half-life: approximately 1.8 hours

## NCC(=O)CCC(=O)O [aminolevulinic acid]
[3]
  post PDT survival: 8 days
